The results in this text go back to patent US20260325685A1, “Radiopharmaceutical Compositions Targeting Carbonic Anhydrase IX and Uses Thereof” (RayzeBio, Inc., priority 2023, published 2026).

Where two headings read alike, the source gives them in different places.

In one assay the target is T1, human CA-IX (Homo sapiens, UniProt Q16790).
T1 construct: purchased Acro CA9-H82E3
Briefly: Surface Plasmon Resonance (SPR) binding kinetics to recombinant human CA-IX (Biacore 8K, single-cycle kinetics, 1:1 binding model). In outline:
(§1)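 At 25° C, compound was injected at nine concentrations from 100 to 0.39 nM (PBS-P+ pH 7.4, 1% DMSO) over streptavidin-captured recombinant human CA-IX or CA-XII (1200-1800 RU). Association 120 s, dissociation 1200 s, single-cycle format; association and dissociation constants from 1:1 kinetic fits.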
For orientation: In SPR one partner is held on a chip, and binding of the other changes the refractive index at the surface.

Another assay has as its target T2, human CA-XII (Homo sapiens, UniProt O43570).
T2 construct: purchased Creative BioMart CA12-261H
Briefly: Surface Plasmon Resonance (SPR) binding kinetics to recombinant human CA-XII (Biacore 8K, single-cycle kinetics, 1:1 binding model). In outline:
as §1

[1] abbreviates: Chelated Metal: Cu (cold); SPR, 25° C., pH 7.4; read-out: CAIX KD.
[2] abbreviates: Chelated Metal: Cu (cold), 25° C., pH 7.4, read-out: CAXII KD.
Where [3] appears, read: Chelated Metal: Lu-175; SPR, 25° C., pH 7.4; read-out: CAIX KD.
[4] abbreviates: Chelated Metal: Lu-175, 25° C., pH 7.4, read-out: CAXII KD.
[5] abbreviates: Chelated Metal: None; SPR, 25° C., pH 7.4; read-out: CAIX KD.
Setting [6] is: Chelated Metal: None, 25° C., pH 7.4, read-out: CAXII KD.
Where [7] appears, read: read-out: CAIX KD; Chelated Metal: Lu-175; SPR, 25° C., pH 7.4.
Setting [8] is: read-out: CAXII KD, Chelated Metal: Lu-175, 25° C., pH 7.4.

T2 sequence (O43570 25-354): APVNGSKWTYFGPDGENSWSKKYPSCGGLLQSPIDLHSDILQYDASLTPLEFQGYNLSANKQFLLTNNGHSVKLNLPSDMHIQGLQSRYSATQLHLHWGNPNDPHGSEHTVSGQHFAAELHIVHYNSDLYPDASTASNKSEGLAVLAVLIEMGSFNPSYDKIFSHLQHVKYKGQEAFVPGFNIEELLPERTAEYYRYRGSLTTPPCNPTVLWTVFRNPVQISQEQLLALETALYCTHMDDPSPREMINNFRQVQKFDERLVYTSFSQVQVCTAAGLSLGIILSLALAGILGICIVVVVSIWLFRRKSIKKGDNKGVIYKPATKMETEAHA

Consider `CC(CCCC(=O)N1CCC(C(N)=O)(C(=O)NCC(=O)N2CCN(C(=O)CN3CCN(CC(=O)O)CCN(CC(=O)O)CC3)C[C@H]2C(=O)NCCn2cc(C34CC(C(=O)Nc5nnc(S(N)(=O)=O)s5)(C3)C4)nn2)CC1)(c1ccc(O)cc1)c1ccc(O)cc1.[Cu+2]` [Compound 126], for which the Kd at human CA-IX (setting [1]) is under 1 nM; at human CA-XII (setting [2]) it was over 10 nM.
Consider `CC(CCC(=O)N[C@@H](CC(=O)N[C@@H](CC(=O)N1CCN(C(=O)CN2CCN(CC(=O)O)CCN(CC(=O)O)CC2)C[C@H]1C(=O)NCCn1cc(C23CC(C(=O)Nc4nnc(S(N)(=O)=O)s4)(C2)C3)nn1)C(=O)O)C(=O)O)(c1ccc(O)cc1)c1ccc(O)cc1.[Cu+2]` [Compound 126.4], for which the Kd is under 1 nM on human CA-IX (setting [1]) and over 10 nM at human CA-XII (setting [2]).
On to `CC(CCC(=O)N[C@@H](CC(=O)N[C@@H](CC(=O)N1CCN(C(=O)CN2CCN(CC(=O)O)CCN(CC(=O)O)CCN(CC(=O)O)CC2)C[C@H]1C(=O)NCCn1cc(-c2ccc(-c3cn4nc(S(N)(=O)=O)sc4n3)cc2)nn1)C(=O)O)C(=O)O)(c1ccc(O)cc1)c1ccc(O)cc1.[Lu+3]` [Compound 107.28], for which the Kd on human CA-IX (setting [3]) and on human CA-XII (setting [4]) was under 1 nM in each case.
For the compound `NS(=O)(=O)c1nnc(NC(=O)C23CCC(c4cn(CCNC(=O)[C@@H]5CN(C(=O)CN6CCN(CC(=O)O)CCN(CC(=O)O)CCN(CC(=O)O)CC6)CCN5C(=O)CC[C@H](NC(=O)C[C@H](NC(=O)C5CC6(CCC6)C5)C(=O)O)C(=O)O)nn4)(CC2)CC3)s1.[Lu+3]` [Compound 109.51], the Kd on human CA-IX (setting [3]) and at human CA-XII (setting [4]) was under 1 nM each time.
In the case of `CC(CCCC(=O)N1CCC(C(N)=O)(C(=O)NCC(=O)N[C@@H](CCCCn2cc(CCCC(=O)Nc3nnc(S(N)(=O)=O)s3)nn2)C(=O)NCCOCCOCCNC(=O)CN2CCN(CC(=O)O)CCN(CC(=O)O)CCN(CC(=O)O)CC2)CC1)(c1ccc(O)cc1)c1ccc(O)cc1` [Compound 102.3], the Kd was under 1 nM at human CA-IX (setting [5]) and over 10 nM on human CA-XII (setting [6]). Moreover, the “Ratio (CAXII/CAIX)” value at human CA-IX (KD ratio CAXII/CAIX; Chelated Metal: None) was “*** (10 < *** ≤ 50)”.
As for `CC(CCC(=O)N[C@@H](CC(=O)N[C@@H](CC(=O)N[C@@H](CCCCn1nnc(C(=O)O)c1C12CCC(C(=O)Nc3nnc(S(N)(=O)=O)s3)(CC1)CC2)C(=O)NCCOCCOCCNC(=O)CN1CCN(CC(=O)O)CCN(CC(=O)O)CCN(CC(=O)O)CC1)C(=O)O)C(=O)O)(c1ccc(O)cc1)c1ccc(O)cc1.[Lu+3]` [Compound 122], the Kd at human CA-IX (setting [7]) and on human CA-XII (setting [8]) was 1 to 2.5 nM each time.
In the case of `CC(CCC(=O)N[C@@H](CC(=O)N[C@@H](CC(=O)N1CCN(C(=O)CN2CCN(CC(=O)O)CCN(CC(=O)O)CCN(CC(=O)O)CC2)C[C@H]1C(=O)NCC(=O)N1CCC2(CC1)CC(C(=O)Nc1nnc(S(N)(=O)=O)s1)C2)C(=O)O)C(=O)O)(c1ccc(O)cc1)c1ccc(O)cc1.[Lu+3]` [Compound 119], the figures for the Kd at human CA-IX (setting [7]) and at human CA-XII (setting [8]) were 2.5 to 10 nM and over 10 nM, respectively.
Regarding `CC(CCC(=O)N[C@@H](CC(=O)N[C@@H](CC(=O)N1CCN(C(=O)CCOCCOCCOCCOCCN(CCOCCOCCOCCOCCC(=O)N2CCN(C(=O)C[C@H](NC(=O)C[C@H](NC(=O)CCC(C)(c3ccc(O)cc3)c3ccc(O)cc3)C(=O)O)C(=O)O)[C@H](C(=O)NCCn3cc(C45CC(C(=O)Nc6nnc(S(N)(=O)=O)s6)(C4)C5)nn3)C2)C(=O)CNC(=O)CN2CCN(CC(=O)O)CCN(CC(=O)O)CCN(CC(=O)O)CC2)C[C@H]1C(=O)NCCn1cc(C23CC(C(=O)Nc4nnc(S(N)(=O)=O)s4)(C2)C3)nn1)C(=O)O)C(=O)O)(c1ccc(O)cc1)c1ccc(O)cc1` [Compound 131.2], the Kd at human CA-IX (setting [5]) and on human CA-XII (setting [6]) was under 1 nM each time.

The Kd is the concentration at which binding is half-saturated.
